Measured values as given in PMC10180054, “Design, Synthesis and Biological Evaluation of Novel Pleuromutilin Derivatives Containing 6-Chloro-1-R-1H-pyrazolo[3,4-d]pyrimidine-4-amino Side Chain” (Molecules, 2023).
Values after ≈ are worked out from the molar mass of the structure shown. “Also recorded” adds a separate entry of the source. Where two headings read alike, the source gives them in different places.

How the values were obtained:
MRSA ATCC 43300 [1] = test: Neutropenic murine thigh infection model; format: in vivo; conditions: neutropenic mice, 20 mg/kg, 24 h after dosing, n = 6/group
Protocol: Therefore, the in vivo efficacy of compounds 12c and 22c were assessed using the murine neutropenic thigh infection model. Mice groups treated with saline and tiamulin were chosen as the negative and positive controls.
Model experiments of neutropenic mouse thigh infection were manipulated as described in the literature. Female, six-week-old, specific-pathogen-free mice weighing approximately 23~26 g were used throughout the study. Mice were rendered neutropenic by injection of cyclophosphamide (Mead Johnson Pharmaceuticals, Evansville, IN) on day 4 (150 mg/kg) and day 1 (100 mg/kg) before the experiment. The neutrophil numbers in mice blood should be <0.1 × 10^9/L [34]. In total, 0.1 mL of MH broth of MRSA (10^7 CFU/mL) was inoculated into each thigh of the neutropenic mice. Mice were divided into 4 groups (6 mice per group), including control (sterile saline), compounds 12c, 22c and tiamulin groups. After 3 h post-infection, the corresponding drugs were injected into each mouse’s thigh. Mice were euthanized following intravenous injection for 24 h. Thigh tissue of each mouse was removed, collected, weighed and homogenized in 3 mL of ice sterile saline. Six ten-fold serial dilutions were performed and 25 μL of the bacterial solution from each tube was plated on MH agar plates. The resulting colonies were counted after 24 h incubation at 37 °C. The protocol for this study was reviewed and approved by the Institutional Animal Care and Use Committee of the South China Agricultural University.

Caco-2 cells = test: Cytotoxicity MTT assay; format: cell-based, human; conditions: 1~8 μg/mL, 16 h
Protocol: (§1) The presence of compounds can influence cellular basic physiological processes, suppress proliferation and even reduce cell survival, etc. In the community, MRSA generally causes respiratory infection. Therefore, cytotoxicity was evaluated to explore the effect of compounds 12c and 22c on the viability of the respiratory tract cells 16-HBE (human bronchial epithelial cell line). RAW 264.7 (mouse peritoneal macrophage cell line) and Caco-2 (human epithelial colorectal adenocarcinoma cell line) were also used to evaluate the cytotoxicity of compounds 12c and 22c by MTT assay.
(§2) Cytotoxicity of the test compounds was assessed using the conventional MTT method. RAW 264.7 murine macrophage cells, Caco-2 cells and 16-HBE were used in this experiment. The cells were seeded into 96-well plates at a density of 1.0 × 10^5 cells per well. After 4 h at 37 °C, the cells were treated with compounds 12c and 22c at various concentrations and incubated at 37 °C for 16 h. Next, MTT (0.5 mg/mL in PBS, 100 μL/well) was added sequentially to each well in a humidified atmosphere of 95% air and 5% CO2 incubator and the incubation continued for an additional four hours. After incubation, the medium was peeled off and DMSO (150 μL/well) was added to dissolve the cells, and then the incubation was continued for 30 min. At the end of this period, the absorbance was measured at 490 nm by a microplate spectrophotometer (BIO-TEK Instruments, Winooski, VT, USA).

16-HBE cells = test: Cytotoxicity MTT assay; format: cell-based, human; conditions: 1~8 μg/mL, 16 h
Protocol: as §1, §2

MRSA ATCC 43300 [2] = test: MIC/MBC by broth dilution (CLSI); format: cell-based, Staphylococcus aureus; conditions: for MIC: MRSA ATCC 43300, broth dilution, 24 h, 37 °C
Procedure, shortened: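 CLSI broth dilution used twofold compound series from 64 to 0.0625 µg/mL (stocks in water with 2.5% DMSO and 2.5% Tween-80) and a final inoculum of 5 × 10^5 CFU/mL, in triplicate. For MBC, 25 µL from wells without visible growth was plated on MH agar and cultured 24 h at 37 °C.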

melting point: 109 to 113 °C | MIC (MRSA ATCC 43300 [2]): 0.25/0.25 μg/mL | MIC (MRSA ATCC 43300 [2]; Staphylococcus aureus, read-out: MIC): 0.25 µg/mL (≈ 0.333 µM) | MBC/MIC ratio (MRSA ATCC 43300 [2]; against MRSA): ≤ 2
SMILES: C=C[C@]1(C)C[C@@H](OC(=O)CSc2ccc(Nc3nc(Cl)nc4c3cnn4-c3ccc(F)c(F)c3)cc2)[C@]2(C)[C@H](C)CC[C@]3(CCC(=O)[C@H]32)[C@@H](C)[C@@H]1O [Compound 22c, 22-[4-(6-Chloro-1-(3,4-difluorophenyl)-1H-pyrazolo[3,4-d]pyrimidine-4-yl)amino-Phenylsulfanyl]-22-deoxypleuromutilin]
reduction of MRSA load in thigh vs growth control (MRSA ATCC 43300 [1]): −0.93 log10 CFU/mL | effect on viability of Caco-2 cells (Caco-2 cells): no significant inhibition; also recorded: did not affect the viability | effect on viability of 16-HBE cells (16-HBE cells): no significant inhibition; also recorded: did not affect the viability | MBC (MRSA ATCC 43300 [2]; Staphylococcus aureus, MRSA ATCC 43300, 99.9% of the bacteria killed): 0.25 µg/mL (≈ 0.333 µM)
